Assay results reported in PubChem BioAssay (NCI).
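Interpolation was linear, between the two tested concentrations surrounding the appropriate level; five concentrations were tested over 48 hours in 96-well plates. GI50 marks 50% less growth. Definition used: TGI = concentration required for complete inhibition of growth.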

Key:
Experiment in all cases: DTP human tumour cell line panel, 48 h
U251 CNS = tested on: U251 CNS
OVCAR-5 ovarian = tested on: OVCAR-5 ovarian
BT-549 breast = tested on: BT-549 breast
SF-539 CNS = tested on: SF-539 CNS
M14 melanoma = tested on: M14 melanoma
NCI-H23 lung = tested on: NCI-H23 lung
UACC-257 melanoma = tested on: UACC-257 melanoma
OVCAR-4 ovarian = tested on: OVCAR-4 ovarian
NCI-H226 lung = tested on: NCI-H226 lung
DU-145 prostate = tested on: DU-145 prostate

| SMILES | TGI (U251 CNS) [µM] | TGI (OVCAR-5 ovarian) [µM] | TGI (BT-549 breast) [µM] | TGI (SF-539 CNS) [µM] | TGI (M14 melanoma) [µM] | TGI (NCI-H23 lung) [µM] | TGI (UACC-257 melanoma) [µM] | TGI (OVCAR-4 ovarian) [µM] | TGI (NCI-H226 lung) [µM] | TGI (DU-145 prostate) [µM] | GI50 (U251 CNS) [µM] | GI50 (OVCAR-5 ovarian) [µM] | GI50 (BT-549 breast) [µM] | GI50 (SF-539 CNS) [µM] | GI50 (M14 melanoma) [µM] | GI50 (NCI-H23 lung) [µM] | GI50 (UACC-257 melanoma) [µM] | GI50 (OVCAR-4 ovarian) [µM] | GI50 (NCI-H226 lung) [µM] | GI50 (DU-145 prostate) [µM] |
| --- | --- | --- | --- | --- | --- | --- | --- | --- | --- | --- | --- | --- | --- | --- | --- | --- | --- | --- | --- | --- |
| N#CC(NC12CC3CC(CC(C3)C1)C2)c1ccc2c(c1)OCO2 (configuration not stated) | > 100 | > 100 | > 100 | > 100 | > 100 | > 100 | > 100 | > 100 | > 100 | > 100 | – | – | – | – | – | – | – | – | – | – |
| C=C1C(=O)O[C@H]2[C@H]1CC/C(COC(=O)NCc1ccc(Cn3c(=O)sn(CCCl)c3=O)cc1)=C\CC[C@@]1(C)O[C@@H]21 | 20.2 | 4.19 | 2.78 | 3.26 | 3.65 | 5.2 | 4.98 | 4.01 | 37.3 | 3.14 | 6.79 | 1.97 | 1.45 | 1.82 | 1.82 | 2.18 | 1.85 | 1.92 | 17.2 | 1.72 |
| Nc1c(C(=O)c2cccc(-c3ccncc3)c2)cnn1-c1ccc(F)cc1F | > 25 | > 25 | > 25 | > 25 | > 25 | > 25 | > 25 | > 25 | > 25 | > 25 | 12.6 | > 25 | 11.1 | > 16.4 | 6.58 | 10.7 | 9.47 | 11.4 | 4.36 | > 22.1 |
| COc1ccc(C(=O)c2cc(OC)c(OC)c(OC)c2)cc1OC(=O)CCl | > 100 | > 100 | – | 0.0541 | – | > 100 | > 100 | > 100 | > 100 | – | 0.0422 | 3.61 | < 0.0192 | < 0.01 | < 0.0142 | 0.0653 | > 100 | 0.115 | 11.3 | 0.0322 |
| COc1ccc(-c2c[nH]c(C(=O)O)c2-c2cc(OC)c(OC)c(OC)c2)cc1 | > 100 | > 100 | > 100 | 15.6 | > 100 | > 100 | > 100 | > 100 | > 100 | > 100 | 4.99 | 9.98 | 10.4 | 3.08 | 3.65 | 7.77 | > 100 | 88.8 | 4.59 | 4.27 |
| CN(O)c1nc(N(C)O)nc(N2CCOCC2)n1 | > 100 | > 100 | > 100 | > 100 | 57 | > 100 | 92.2 | > 100 | > 100 | > 100 | 1.25 | 41.2 | 5.34 | 4.1 | 2.92 | 12.4 | 5.57 | 2.02 | 7.64 | 4.93 |
| Fc1ccc2c(c1)C1=NN(c3ccccc3)C(F)C1CO2 (configuration not stated) | 15.3 | > 50 | 22.2 | 14.9 | 18.6 | 26.7 | 26.5 | 17.4 | 19.1 | 21.8 | 7.29 | 18.1 | 10.4 | 6.62 | 8.16 | 11.2 | 9.7 | 7.72 | 8.08 | 5.18 |
